Measurements: patent publication US12560591B2, “Methods of treatment with CD8 T cell-mediated immune therapy” (Providence Health & Services—Oregon, priority 2019, dated 2026)

Assays:
[1] = test system: Smad2 (ALK5 signaling) in tumor tissue; assay: phospho-SMAD2 / CD8a co-immunofluorescence of tumor sections at day 14; format: in vivo, mouse; conditions: day 14, one day post-LY treatment, specifically in CD8α^+ cells, FIG. 1C
Procedure: FIGS. 1A-1D are a series of panels showing that the TGFβR1 antagonist LY2157299 enhances chemo-radiation efficacy dependent on CD8α^+ cells in CT26 tumors. FIG. 1A is a treatment schema in the CT26 tumor model. Six to eight week old BALB/c mice were implanted subcutaneously in the left flank with 2×10^5 CT26 tumor cells. Seven days following implant, animals were randomized based on tumor size, and vehicle control or LY2157299 compound were administered by oral gavage twice daily every 12 hours at 150 mg/kg for 7 consecutive days. At day 14, some mice received five consecutive radiation treatments of 5 Gy targeted to tumor tissue along with 25 mg/kg injections of 5-fluorouracil (5FU) chemotherapy administered intraperitoneally on days 14, 16, and 18. LY treatment groups resumed BID oral dosing from days 21-27. Mean tumor growth (i) and survival (ii) were assessed three times per week up to 100 days or death (FIG. 1B). […] Arrows identify pSMAD2^+CD8^+ cells in vehicle mice. […] NS=not significant, *=p<0.05, **=p<0.01, ***=p<0.001.
Immunofluorescence: Human rectal cancer biopsies were fixed in 10% NBF overnight and mouse tumors were fixed in zinc fixative overnight prior to tissue processing and paraffin embedding followed by sectioning cut at 5 microns for immunofluorescent staining. […]
Production of TGFβ by cells within the tumor was evaluated.

CXCR3^+CD8^+ T cells = assay: FACS analysis of CXCR3^+CD8^+ T cells in CT26 tumor bearing mice; format: in vivo, mouse; conditions: preclinical modeling, 7 days treatment, FIG. 10E
Procedure: FIGS. 10A-10E show CD8^+ T cell proliferation is suppressed by the tumor microenvironment, but TGF13 inhibition can increase tumor trafficking. […] Ki67^+CD8^+ T cells was determined by FACS analysis of lymph nodes and MC38 tumors of WT and ALK5^ΔCD8 mice (FIG. 10B).
Flow Cytometry: For ex vivo cytokine analysis, cells were first treated with a 1× cell activation cocktail of PMA/ionomycin/Brefeldin A (Biolegend) for 5 hours in complete RPMI media. One million cells from single cell suspensions were stained with anti-CD16/CD32 Fc block (1:200, BD Biosciences) and fixable viability 700 dye (1:10,000, BD Biosciences) in 1×PBS for 15 min. at 37° C. prior to surface and intracellular staining with primary antibodies. Surface staining commenced in 200 μl FACS buffer supplemented with a 1:4 dilution of Brilliant Violet stain buffer (BD Biosciences) and fluorescently conjugated antibodies (Table 1) for 30 min at 4° C. in the dark; all are mouse reactive antibodies unless otherwise indicated. Following surface staining cells were washed and fixed in either 2% PFA or Fix/Perm buffer (eBioscience) for 20 min at 4° C. for intracellular stain. Fix/perm buffer was washed with 1× perm wash buffer (eBioscience) and intracellular proteins were stained with fluorescently conjugated ICS antibodies in perm wash buffer for 30 min. at 4° C. in the dark. […]

[2] = test system: CXCR3^+CD8^+ T cells in the tumor microenvironment; assay: Clinical trial NCT02688712: immunofluorescence of rectal tumor biopsies, baseline vs day 15; format: in vivo, human; conditions: rectal cancer patient biopsies, baseline vs day 15, FIG. 12D-E
From the text: FIGS. 12A-12E are a series of panels showing TGFβ-mediated suppression of CXCR3-dependent CD8^+ T cell chemotaxis is relieved by LY2157299 in human patients with rectal cancer. […] FIG. 12B illustrates the clinical trial schema for a phase II clinical trial of rectal cancer patients and sample collection intervals. Patients receive two cycles of LY2157299 on days 1-14 and again on days 30-43 while receiving standard of care chemoradiation on days 15-57 prior to surgery. […] Patients are grouped by nodal status following neoadjuvant treatment (ypN). On the right, percent change in frequency of CXCR3^+CD3^+CD4^− T cells between days 1 and 15 is shown versus the neoadjuvant rectal (NAR) score. […] Each patient is shown (thin gray lines) along with the mean of all patients (thick black line). […]
To determine the clinical relevance of our data, the expression of CXCR3 in human patients was interrogated. […] Therefore, the CD4^+ T cell panel was used and back gated on CD45^+CD3^+CD4^− T cells, the majority of which are CD8^+ T cells (on average 65% of CD45^+CD3^+CD4^− cells were CD8^+ T cells using the T effector and memory panel which has CD45, CD3, CD4, and CD8, but not CXCR3), and calculated CXCR3 expression. […] Therefore, forceps-biopsy specimens obtained by proctoscopy at baseline and day 15 were evaluated for alterations in CXCR3^+CD8^+ T cells.

Cc1cccc(-c2nn3c(c2-c2ccnc4ccc(C(N)=O)cc24)CCC3)n1 [LY2157299]
phosphorylation and nuclear translocation of Smad2 in tumor sections [1]: reduced phosphorylation and nuclear translocation
CXCR3^+CD8^+ T cells following treatment (CXCR3^+CD8^+ T cells): increase in CXCR3^+CD8^+ T cells
percentage CXCR3^+CD8^+ T cells in the tumor microenvironment [2]: increase in the percentage CXCR3^+CD8^+ T cells
